Drawing on PMC6160570, “Maprotiline Prevents Monocrotaline-Induced Pulmonary Arterial Hypertension in Rats” (Frontiers in Pharmacology, 2018), this text covers Kd for two compounds.

pKd: −log10 of the molar value. Like-named read-outs stand apart in the source and are kept apart here.

In test [1] the target is T1, soluble guanylate cyclase (sGC), α1/β1 heterodimer (Homo sapiens, UniProt Q02108+Q02153).
T1 sequence (Q02153 1-619): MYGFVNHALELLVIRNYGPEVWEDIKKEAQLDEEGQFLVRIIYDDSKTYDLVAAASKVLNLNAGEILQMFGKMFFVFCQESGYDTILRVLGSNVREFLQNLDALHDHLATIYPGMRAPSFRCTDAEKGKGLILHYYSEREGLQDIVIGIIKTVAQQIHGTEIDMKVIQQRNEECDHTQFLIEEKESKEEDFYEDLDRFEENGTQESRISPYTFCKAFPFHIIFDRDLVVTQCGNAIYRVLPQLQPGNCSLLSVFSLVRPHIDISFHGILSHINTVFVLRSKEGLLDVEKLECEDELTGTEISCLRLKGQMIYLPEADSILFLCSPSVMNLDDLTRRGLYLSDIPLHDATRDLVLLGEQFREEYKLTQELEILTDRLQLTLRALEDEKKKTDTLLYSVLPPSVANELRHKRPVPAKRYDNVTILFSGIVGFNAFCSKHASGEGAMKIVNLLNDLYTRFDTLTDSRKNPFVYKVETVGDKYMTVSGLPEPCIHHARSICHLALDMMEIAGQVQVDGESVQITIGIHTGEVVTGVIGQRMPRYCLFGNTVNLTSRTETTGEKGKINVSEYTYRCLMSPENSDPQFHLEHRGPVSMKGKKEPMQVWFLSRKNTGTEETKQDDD
T1 sequence (Q02108 1-690): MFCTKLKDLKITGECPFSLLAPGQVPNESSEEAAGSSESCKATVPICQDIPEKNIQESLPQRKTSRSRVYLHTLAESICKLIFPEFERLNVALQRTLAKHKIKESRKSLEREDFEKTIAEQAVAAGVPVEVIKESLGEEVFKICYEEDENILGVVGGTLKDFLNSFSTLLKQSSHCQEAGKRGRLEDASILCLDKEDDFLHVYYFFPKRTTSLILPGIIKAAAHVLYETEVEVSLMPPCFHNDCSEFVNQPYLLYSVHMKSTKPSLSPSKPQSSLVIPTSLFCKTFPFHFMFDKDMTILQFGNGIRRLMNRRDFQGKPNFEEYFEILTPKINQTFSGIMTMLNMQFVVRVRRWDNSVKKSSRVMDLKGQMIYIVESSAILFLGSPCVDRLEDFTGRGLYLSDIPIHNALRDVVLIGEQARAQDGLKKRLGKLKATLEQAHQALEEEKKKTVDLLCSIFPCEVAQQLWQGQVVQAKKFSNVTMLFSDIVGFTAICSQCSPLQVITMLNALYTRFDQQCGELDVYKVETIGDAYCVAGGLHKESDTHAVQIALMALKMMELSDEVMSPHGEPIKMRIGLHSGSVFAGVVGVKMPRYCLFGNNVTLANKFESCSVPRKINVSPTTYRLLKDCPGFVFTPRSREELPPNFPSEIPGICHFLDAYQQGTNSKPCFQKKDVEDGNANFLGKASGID
In words: SPR (Biacore T200, sGC immobilized on CM5 chip), positive control. Details: gene GUCY1B1; full-length recombinant sGC (α1 and β1 subunits coexpressed in Sf9 cells); with sGC α1 subunit (GUCY1A1, Q02108). In kind it is binding.

Test [2] addresses T1, soluble guanylate cyclase (sGC), α1/β1 heterodimer. Details: gene GUCY1B1.

Broadly, the pKd is the negative decadic logarithm of the Kd, by convention in mol/L.

As to `OCc1ccc(-c2nn(Cc3ccccc3)c3ccccc23)o1` [YC-1], the negative logarithm of the Kd (pKd) in test [1] is 5.66. In test [2], `CNCCCC12CCC(c3ccccc31)c1ccccc12` [maprotiline] gave a negative-log Kd (pKd) of 6.51.
